One test deals with T1, α4β1 integrin receptor (Homo sapiens, UniProt P05556+P13612).
T1 construct: Ramos Cell Adhesion Assay (α4β1 Mediated Adhesion/VCAM-1); endogenous in cells; host or cells: Ramos cells
The experiment in a line: Ramos Cell Adhesion Assay (α4β1 Mediated Adhesion/VCAM-1). Type of test: cell-based. On the procedure: Ramos Cell Adhesion Assay (α4β1 Mediated Adhesion/VCAM-1)
(§1) Immulon 96 well plates (Dynex) were coated with 100 μL recombinant hVCAM-1 at 4.0 μg/mL in 0.05 M NaCO3 buffer pH 9.0 overnight at 4° C. (R&D Systems). Plates were washed 3 times in PBS with 1% BSA and blocked for 1 h @ room temperature in this buffer. PBS was removed and compounds to be tested (50 μL) were added at 2× concentration. Ramos cells, (50 μL at 2×10^6/mL) labeled with 5 μM Calcein AM (Molecular Probes) for 1 h at 37° C., were added to each well and allowed to adhere for 1 h at room temperature. Plates were washed 3× in PBS+1% BSA and cells were lysed for 15 minutes in 100 μL of 1 M Tris pH 8.0 with 1% SDS. The plate was read at 485 nm excitation and 530 nm emission.

The next test concerns the target T2, human α4β7 (Homo sapiens, UniProt P13612+P26010).
T2 construct: expressed in transfected cells
T2 sequence (P13612 34-1032): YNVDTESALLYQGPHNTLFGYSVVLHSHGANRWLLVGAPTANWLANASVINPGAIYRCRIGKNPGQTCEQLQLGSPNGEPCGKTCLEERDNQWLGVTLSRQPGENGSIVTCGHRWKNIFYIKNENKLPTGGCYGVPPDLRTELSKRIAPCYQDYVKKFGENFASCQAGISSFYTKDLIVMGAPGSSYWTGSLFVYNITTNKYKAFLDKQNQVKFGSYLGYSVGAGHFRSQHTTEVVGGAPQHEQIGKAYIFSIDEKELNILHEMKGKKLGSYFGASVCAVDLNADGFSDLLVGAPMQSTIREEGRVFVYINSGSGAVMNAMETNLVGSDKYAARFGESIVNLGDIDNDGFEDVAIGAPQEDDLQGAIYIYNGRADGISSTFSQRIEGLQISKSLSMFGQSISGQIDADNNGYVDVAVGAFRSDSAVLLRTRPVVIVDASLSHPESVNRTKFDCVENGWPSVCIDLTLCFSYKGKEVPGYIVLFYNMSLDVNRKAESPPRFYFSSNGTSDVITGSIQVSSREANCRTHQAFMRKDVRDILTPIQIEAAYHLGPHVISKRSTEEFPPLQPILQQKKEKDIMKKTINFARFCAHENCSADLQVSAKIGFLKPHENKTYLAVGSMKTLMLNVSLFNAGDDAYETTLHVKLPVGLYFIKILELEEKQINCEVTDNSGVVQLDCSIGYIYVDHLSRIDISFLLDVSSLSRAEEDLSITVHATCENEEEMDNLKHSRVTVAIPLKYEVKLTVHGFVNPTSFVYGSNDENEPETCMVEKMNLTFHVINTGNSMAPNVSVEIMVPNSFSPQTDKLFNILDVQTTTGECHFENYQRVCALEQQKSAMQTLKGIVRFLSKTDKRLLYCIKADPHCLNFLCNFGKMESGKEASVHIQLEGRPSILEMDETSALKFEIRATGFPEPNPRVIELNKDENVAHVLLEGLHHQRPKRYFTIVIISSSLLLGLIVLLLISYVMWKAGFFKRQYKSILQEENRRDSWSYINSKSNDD
T2 sequence (P26010 20-798): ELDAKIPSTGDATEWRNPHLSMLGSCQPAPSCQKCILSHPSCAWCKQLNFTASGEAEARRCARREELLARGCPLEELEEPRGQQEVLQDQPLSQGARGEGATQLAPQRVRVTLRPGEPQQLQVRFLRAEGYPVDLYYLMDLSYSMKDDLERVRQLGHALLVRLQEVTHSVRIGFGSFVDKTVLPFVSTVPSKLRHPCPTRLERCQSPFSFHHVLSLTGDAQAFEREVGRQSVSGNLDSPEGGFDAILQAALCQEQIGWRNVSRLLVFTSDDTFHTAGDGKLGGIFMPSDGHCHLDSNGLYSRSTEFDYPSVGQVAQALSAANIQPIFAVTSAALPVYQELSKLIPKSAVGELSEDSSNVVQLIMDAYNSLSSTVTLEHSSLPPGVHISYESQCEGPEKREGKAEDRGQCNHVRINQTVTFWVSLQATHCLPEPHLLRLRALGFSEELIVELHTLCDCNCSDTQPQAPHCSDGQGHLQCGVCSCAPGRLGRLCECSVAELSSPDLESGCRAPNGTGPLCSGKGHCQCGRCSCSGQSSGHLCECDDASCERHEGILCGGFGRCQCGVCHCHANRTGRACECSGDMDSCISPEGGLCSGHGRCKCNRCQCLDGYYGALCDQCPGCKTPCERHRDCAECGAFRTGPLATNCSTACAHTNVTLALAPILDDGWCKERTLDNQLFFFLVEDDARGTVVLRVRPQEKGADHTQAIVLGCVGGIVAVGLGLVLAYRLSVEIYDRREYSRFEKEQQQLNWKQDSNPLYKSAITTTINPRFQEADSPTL
Put plainly: α4β7-K562 Cell Adhesion Assay (α4β7 Mediated Adhesion/VCAM-1). Type of test: cell-based. As to the method:
α4β7-K562 Cell Adhesion Assay (α4β7 Mediated Adhesion/VCAM-1)
as §1, with “A stable cell line of K562 cells expressing human α4β7,” for “Ramos cells,”

The mark [1] stands for this setting: Table I, racemic mixtures and resolved (S,S) and (R,S) diastereomers, read-out: Antagonist IC50 Activity α4β1.
The mark [2] stands for this setting: Table III, read-out: Inhibition of Binding of Ramos Cells to Immobilized VCAM-1 IC50.
Where [3] appears, read: Table I, racemic mixtures and resolved (S,S) and (R,S) diastereomers, read-out: Antagonist IC50 Activity α4β7.
The mark [4] stands for this setting: Table IV, μM, read-out: Inhibition of Binding of K562 Cells to Immobilized VCAM-1 IC50.
Setting [5] is: Table III, μM, read-out: Inhibition of Binding of Ramos Cells to Immobilized VCAM-1 IC50.

In patent US6960597B2, “Aza-bridged-bicyclic amino acid derivatives as α4 integrin antagonists” (Orth-McNeil Pharmaceutical, Inc., priority 2000, dated 2005) one finds IC50 data, which are given here for 14 molecules.

Each structure is given as a SMILES string. Where two headings read alike, the source gives them in different places.

In general, IC50 refers to the point on the concentration scale where inhibition reaches its midpoint.

T1 sequence (P05556 21-798, one chain of several): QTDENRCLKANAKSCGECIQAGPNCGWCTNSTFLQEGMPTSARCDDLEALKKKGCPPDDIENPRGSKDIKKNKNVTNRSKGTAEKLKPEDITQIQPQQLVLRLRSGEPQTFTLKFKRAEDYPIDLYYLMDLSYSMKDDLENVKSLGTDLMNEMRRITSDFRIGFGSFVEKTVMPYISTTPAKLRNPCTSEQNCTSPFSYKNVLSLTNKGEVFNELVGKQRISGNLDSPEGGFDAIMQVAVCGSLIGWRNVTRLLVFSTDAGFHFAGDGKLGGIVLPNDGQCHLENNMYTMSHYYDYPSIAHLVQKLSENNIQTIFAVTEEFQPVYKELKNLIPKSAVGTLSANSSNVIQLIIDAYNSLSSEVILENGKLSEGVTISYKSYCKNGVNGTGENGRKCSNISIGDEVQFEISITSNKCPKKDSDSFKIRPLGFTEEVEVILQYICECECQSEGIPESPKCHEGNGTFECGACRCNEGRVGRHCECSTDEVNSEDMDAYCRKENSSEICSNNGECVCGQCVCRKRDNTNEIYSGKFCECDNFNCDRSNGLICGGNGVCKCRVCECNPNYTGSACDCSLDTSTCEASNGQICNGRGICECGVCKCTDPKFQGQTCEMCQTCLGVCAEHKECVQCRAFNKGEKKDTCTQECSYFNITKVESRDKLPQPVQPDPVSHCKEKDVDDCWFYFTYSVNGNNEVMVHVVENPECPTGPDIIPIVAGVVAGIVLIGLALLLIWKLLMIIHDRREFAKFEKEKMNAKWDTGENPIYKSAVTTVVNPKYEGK

Take `COc1cccc(OC)c1C(=O)Nc1ccc(C[C@H](NC(=O)[C@@H]2C3CCC(C3)N2S(=O)(=O)c2ccccc2)C(=O)O)cc1` (stereo partly drawn) [Cpd 19a, 4-[(2,6-dimethoxybenzoyl)amino]-N-[[(3S)-2-(phenylsulfonyl)-2-azabicyclo[2.2.1]hept-3-yl]carbonyl]-L-phenylalanine]: the IC50 was found to be 0.3 µM on α4β1 integrin receptor (setting [1]), 0.3 µM on α4β1 integrin receptor (setting [2]) and 3.82 µM at human α4β7 (setting [3]).

Turning to `COc1cccc(OC)c1C(=O)Nc1ccc(C[C@H](NC(=O)[C@H]2C3CCC(C3)N2S(=O)(=O)c2ccccc2)C(=O)O)cc1` (stereo partly drawn) [Cpd 19b, 4-[(2,6-dimethoxybenzoyl)amino]-N-[[(3R)-2-(phenylsulfonyl)-2-azabicyclo[2.2.1]hept-3-yl]carbonyl]-L-phenylalanine], the IC50 on α4β1 integrin receptor (setting [1]) is 1.21 µM; at α4β1 integrin receptor (setting [2]), 1.21 µM; on human α4β7 (setting [3]), 3.22 µM.

For the molecule `Cc1ccc(S(=O)(=O)N2C3CCC(CC3)C2C(=O)N[C@@H](Cc2ccc(C#Cc3ccc(C(C)(C)C)cc3)cc2)C(=O)O)cc1` (stereo partly drawn) [Cpd 23, 4-[[4-(1,1-dimethylethyl)phenyl]ethynyl]-N-[[2-[(4-methylphenyl)sulfonyl]-2-azabicyclo[2.2.2]oct-3-yl]carbonyl]-L-phenylalanine], the results for the IC50 at α4β1 integrin receptor (setting [2]) and on human α4β7 (setting [4]) were 1.42 µM and more than 10 µM, respectively.

As to `Cc1ccc(S(=O)(=O)N2C3CCC(CC3)C2C(=O)N[C@@H](Cc2ccc(C#Cc3ccccc3)cc2)C(=O)O)cc1` (stereo partly drawn) [Cpd 24, 4-(phenylethynyl)-N-[[2-[(4-methylphenyl)sulfonyl]-2-azabicyclo[2.2.2]oct-3-yl]carbonyl]-L-phenylalanine], the IC50 was 1.1 µM at α4β1 integrin receptor (setting [2]) and more than 10 µM on human α4β7 (setting [4]).

With `Cc1ccc(S(=O)(=O)N2C3CCC(CC3)C2C(=O)N[C@@H](Cc2ccc(NC(=O)c3ccccc3)cc2)C(=O)O)cc1` (stereo partly drawn) [Cpd 25, 4-(benzoylamino)-N-[[2-[(4-methylphenyl)sulfonyl]-2-azabicyclo[2.2.2]oct-3-yl]carbonyl]-L-phenylalanine], the IC50 on α4β1 integrin receptor (setting [2]) was 0.903 µM; at human α4β7 (setting [4]), more than 10 µM.

As for `COc1ccc(OC)c(C(=O)c2ccc(C(=O)Nc3ccc(C[C@H](NC(=O)C4C5CCC(CC5)N4S(=O)(=O)c4ccc(C)cc4)C(=O)O)cc3)cc2)c1` (stereo partly drawn) [Cpd 26, 4-[[4-(2,5-dimethoxybenzoyl)benzoyl]amino]-N-[[2-[(4-methylphenyl)sulfonyl]-2-azabicyclo[2.2.2]oct-3-yl]carbonyl]-L-phenylalanine], the results for the IC50 on α4β1 integrin receptor (setting [2]) and at human α4β7 (setting [4]) were 0.669 µM and more than 10 µM, respectively.

For the molecule `Cc1ccc(S(=O)(=O)N2C3CCC(CC3)C2C(=O)N[C@@H](Cc2ccc(NC(=O)Cc3c(Cl)cccc3Cl)cc2)C(=O)O)cc1` (stereo partly drawn) [Cpd 27, 4-[[(2,6-dichlorophenyl)acetyl]amino]-N-[[2-[(4-methylphenyl)sulfonyl]-2-azabicyclo[2.2.2]oct-3-yl]carbonyl]-L-phenylalanine], the half-maximal inhibitory concentration (IC50) on α4β1 integrin receptor (setting [2]) was 1.09 µM; at human α4β7 (setting [4]), more than 10 µM.

As for `O=C(Nc1ccc(C[C@H](NC(=O)C2C3CCC(CC3)N2S(=O)(=O)c2ccccc2)C(=O)O)cc1)Nc1c(Cl)cccc1Cl` (stereo partly drawn) [Cpd 28, 4-[[[(2,6-dichlorophenyl)amino]carbonyl]amino]-N-[[2-(phenylsulfonyl)-2-azabicyclo[2.2.2]oct-3-yl]carbonyl]-L-phenylalanine], the IC50 is 1.6 µM at α4β1 integrin receptor (setting [2]) and more than 5 µM at human α4β7 (setting [4]).

Take `Cc1ccc(S(=O)(=O)N2C3CCC(CC3)[C@H]2C(=O)N[C@@H](Cc2ccc(OCc3c(Cl)cccc3Cl)cc2)C(=O)O)cc1` [Cpd 29, 4-[(2,6-dichlorophenyl)methoxy]-N-[[(3S)-2-[[4-methylphenyl)sulfonyl]-2-azabicyclo[2.2.2]oct-3-yl]carbonyl]-L-phenylalanine]: the IC50 was determined as 0.058 µM at α4β1 integrin receptor (setting [2]) and 4.94 µM at human α4β7 (Table IV, read-out: Inhibition of Binding of K562 Cells to Immobilized VCAM-1 IC50).

In the case of `Cc1ccc(S(=O)(=O)N2C3CCC(CC3)C2C(=O)N[C@@H](Cc2ccc(OCc3ccccc3)cc2)C(=O)O)cc1` (stereo partly drawn) [Cpd 30, 4-(phenylmethoxy)-N-[[2-[(4-methylphenyl)sulfonyl]-2-azabicyclo[2.2.2]oct-3-yl]carbonyl]-L-phenylalanine], the results for the IC50 at α4β1 integrin receptor (setting [5]) and at human α4β7 (setting [4]) were more than 5 µM and more than 10 µM, respectively.

With `Cc1ccc(S(=O)(=O)N2C3CCC(CC3)C2C(=O)N[C@@H](Cc2ccc(NC(=O)c3c(C(C)C)cc(C(C)C)cc3C(C)C)cc2)C(=O)O)cc1` (stereo partly drawn) [Cpd 31, 4-[[2,4,6-tris(1-methylethyl)benzoyl]amino]-N-[[2-[(4-methylphenyl)sulfonyl]-2-azabicyclo[2.2.2]oct-3-yl]carbonyl]-L-phenylalanine], the IC50 on α4β1 integrin receptor (setting [5]) was more than 5 µM; at human α4β7 (setting [4]), more than 10 µM.

`Cc1ccc(S(=O)(=O)N2C3CCC(CC3)C2C(=O)N[C@@H](Cc2ccc(-n3cccc3)cc2)C(=O)O)cc1` (stereo partly drawn) [Cpd 32, 4-(1H-pyrrol-1-yl)-N-[[2-[(4-methylphenyl)sulfonyl]-2-azabicyclo[2.2.2]oct-3-yl]carbonyl]-L-phenylalanine]: the values for the IC50 at α4β1 integrin receptor (setting [5]) and on human α4β7 (setting [4]) were more than 5 µM and more than 10 µM, respectively.

As to `Cc1ccc(S(=O)(=O)N2C3CCC(CC3)C2C(=O)N[C@@H](Cc2ccc(-c3ccccc3)cc2)C(=O)O)cc1` (stereo partly drawn) [Cpd 33, 4-phenyl-N-[[2-[(4-methylphenyl)sulfonyl]-2-azabicyclo[2.2.2]oct-3-yl]carbonyl]l-L-phenylalanine], the results for the IC50 on α4β1 integrin receptor (setting [5]) and on human α4β7 (setting [4]) were more than 5 µM and more than 10 µM, respectively.

Consider `O=C(Nc1ccc(C[C@H](NC(=O)C2C3CCC(CC3)N2S(=O)(=O)c2ccccc2)C(=O)O)cc1)Nc1c(F)cccc1F` (stereo partly drawn) [Cpd 34, 4-[[[(2,6-difluorophenyl)amino]carbonyl]amino]-N-[[2-(phenylsulfonyl)-2-azabicyclo[2.2.2]oct-3-yl]carbonyl]-L-phenylalanine], for which the IC50 at α4β1 integrin receptor (setting [5]) was more than 5 µM; on human α4β7 (setting [4]), more than 10 µM.
